Entries after “also recorded” stand apart in the source; their conditions may differ. Each block holds one compound with its values, some of them ahead of it.
Columns and labels:
[1] = tested on: hCS-hSpS-hSkM assembloids; assay: Optogenetic stimulation of hCS in hCS-hSpS-hSkM assembloids, muscle displacement; assay type: cell-based, human; conditions: NBQX (50 μM) and APV (50 μM) added together; Chrim-expressing hCS, 625 nm
Text: Glutamate uncaging and optogenetic stimulation.
Contraction analysis. […] The mean covariance per field was plotted.

hSC [2] = assay: Immunocytochemistry of hSC cytoarchitecture; assay type: cell-based, human; conditions: DAPT+ hSC condition; day 45
Method: (§1) From day 4 in suspension, cultures were supplemented with the GSK-3 inhibitor CHIR 99021 (3 μM). On day 6, spheroids were transferred to neural medium containing neurobasal-A, B-27 supplement without vitamin A, GlutaMax (1:100), penicillin and streptomycin, and supplemented with retinoic acid (RA, 100 nM), EGF (20 ng/ml) and FGF-2 (10 ng/ml). On day 11 of differentiation spheroids were supplemented with the SHH pathway agonist Smoothened Agonist (SAG, 100 nM), in addition to the compounds described above. From day 7 onwards, media was changed every other day. For the hSC+D condition, spheroids received the gamma-secretase inhibitor DAPT (2.5 μM) on days 19, 21 and 23. From day 19, once the initial fate specification stage is finalized, hSCs were transferred to neural medium containing neurobasal-A, B-27 supplement without vitamin A, N−2 supplement, GlutaMax (1:100), penicillin and streptomycin (1:100), and supplemented with BDNF (20 ng/ml), IGF (10 ng/ml), L-Ascorbic Acid (AA, 200 nM) and cAMP (62.5 nM).

hSC [3] = assay: Gene expression analysis (qPCR) of neuronal subtype markers in hSC or hSC+D; assay type: cell-based, human; conditions: DAPT+ condition (2.5 μM) versus hSC; day 30
Method: as §1

hSpS [4] = assay: Single-cell gene expression of hSpS with or without DAPT (BD Rhapsody); assay type: cell-based, human; conditions: hSpS differentiated in the presence of DAPT (2.5 μM, days 19, 21, 23) versus hSpS(−)DAPT; day 45
Method: To generate hSpS, hiPS cell medium was supplemented with dual SMAD inhibitors until day 5 and the WNT activator CHIR 99021 (3 μM, Selleckchem) from day 4 to day 18. On day 6, spheroids were transferred to neural medium supplemented with RA (0.1 μM, Sigma-Aldrich), EGF (20 ng ml-1; R&D Systems) and FGF-2 (10 ng ml-1; R&D Systems), with addition of the SHH modulator smoothened agonist (SAG, 0.1 μM, Millipore) from day 11. From day 7, the medium was changed every other day. […] For hSpS, the Notch inhibitor DAPT (2.5 μM, STEMCELL technologies) was added on days 19, 21 and 23. From day 43 onwards, the medium was changed every four to five days.
Single-cell gene expression (BD Rhapsody system). […] Cell labels and molecular indices were identified, and gene identity was determined by alignment against the gencode comprehensive hg19 reference. […] Gene expression profiles of 4,175 and 3,173 cells were recovered for hSpS with or without DAPT, respectively, with an average number of reads of ˜17,000, ˜2,400 molecules and ˜1,400 number of genes detected per cell with average molecular index coverage (that is, the number of times a molecule was sequenced) of 4.8. […]

[5] = tested on: hCS-hSpS-hSkM assembloids; assay: Glutamate uncaging in hCS-hSpS-hSkM assembloids, muscle contraction; assay type: cell-based, human
Method: (§2) Generation of hSpS-hSkM or hCS-hSpS-hSkM assembloids. To generate neural-muscle assembloids, 3D hSkM that had been in differentiation medium for at least 10 days (see above) were removed from the silicone wells and placed on top of cell culture inserts (0.4 μm pore size; 353090, Corning) that were positioned in 6-well plates containing 2 ml of DMEM/F12 medium supplemented with 1% Non-Essential Amino Acids (NEAA, Life Technologies), 1% Insulin-Transferrin-Selenium (ITS, Life Technologies), 1% penicillin and streptomycin (Life Technologies), L-Ascorbic Acid (AA; 200 nM, Wako) and cAMP (50 nM, Sigma-Aldrich). Next, spheroids (either hSpS or hCS) were placed on the inserts containing 3D hSkM and arranged so that they were in contact with one another and were allowed to interact.
(§3) Glutamate uncaging and optogenetic stimulation. Intact assembloids were imaged under environmentally controlled conditions (37° C., 5% CO2) using a 5× objective in a confocal microscope (Leica SP8). Assembloids, still in transwells, were incubated in the environmentally controlled chamber for 20-30 minutes before imaging. […] At a frame rate of 14.7 frames/sec, a typical stimulation experiment consisted of 500 frames acquired during pre-stimulation, 5 frames of UV stimulation (in specified region of interest, ROI) and 200 frames acquired during poststimulation. For optogenetic stimulation, five pulses of light (625 nm, 68 ms in duration each and ˜68 seconds apart) were delivered using an optical fiber-coupled LED (400 μmdiameter, 13.2 mW; Thorlabs) that was directed towards the hCS.

hCS-hSkM assembloid = conditions: hCS assembled with hSkM, no hSpS
Method: as §2
as §3, with “For optogenetic stimulation, five pulses of light (625 nm, 68 ms in duration each and ˜68 seconds apart) were delivered using an optical fiber-coupled LED (400 μmdiameter, 13.2 mW; Thorlabs) that was directed towards the hCS.” left out

hSpS-hSkM assembloids = conditions: 405 nm, in the presence of MNI-caged glutamate (3.3 mM)
Method: as §2
as §3, with “For optogenetic stimulation, five pulses of light (625 nm, 68 ms in duration each and ˜68 seconds apart) were delivered using an optical fiber-coupled LED (400 μmdiameter, 13.2 mW; Thorlabs) that was directed towards the hCS.” left out

hSpS [6] = assay: Combinatorial growth factor matrix, gene expression of 16 markers at day 20; assay type: cell-based, human
Text: To establish hSpS differentiation conditions, we designed a combinatorial approach, where we used FGF-2, RA, and WNT and SHH modulators at varying concentrations following neural ectoderm specification of early spheroids. […] Briefly, hiPS cell colonies were lifted from plates using the enzyme dispase, moved to ultra-low attachment plates to form spheroids and exposed to dual SMAD inhibition as we have previously described. Starting on day 4 of in vitro differentiation, neural spheroids were exposed to 3 μM of the WNT activator CHIR-99021, and to 20 ng/ml EGF from day 6 onward. Neural spheroids also received a combination of RA (0.01 or 0.1 μM) and FGF-2 (0, 10 or 20 ng/ml) from day 6, and the SHH activator smoothened agonist (SAG; 0, 0.01, 0.1 or 1 μM) from day 11.
For the combinatorial growth factor matrix, small molecules were added on the same days as described above, and the concentrations for dual SMAD inhibitors, CHIR 99021 and EGF were the same as above. From day 7, the neural medium was changed every other day until day 20, when spheres were collected. No DAPT was added for this experiment.
Real-time quantitative PCR (qPCR). For qPCR analysis of spheroids, at least 2-3 spheroids were pooled per sample. mRNA was isolated using the RNeasy Mini kit and RNase-Free DNase set (Qiagen), and template cDNA was prepared by reverse transcription using the SuperScript Ill First-Strand Synthesis SuperMix for qRT-PCR (Life Technologies). qPCR was performed using Sybr Green (Roche) on a ViiA7 machine (Applied Biosystems, Life Technologies).

[7] = tested on: hSpS-limb assembloids (mouse limb buds); assay: Contraction of hSpS-limb assembloids; assay type: cell-based; conditions: curare 100 μM; 14 days after fusion
Method: Co-culture of mouse limb and spheroids. For mouse co-culture experiments, timed-pregnant females were sacrificed at E11.5, embryos were collected, and limb buds dissected (both forelimbs and hindlimbs were used for this experiment). Limbs and spheroids (at D25) were then assembled together by placing them in close proximity in a 1.5 ml microcentrifuge tube for 3 days in an incubator. One limb and one spheroid were placed per tube. On day 2 medium was carefully changed. Neural medium supplemented with N−2 supplement (Life Technologies, 17502048) was used. After assembly, mouse-spheroid cultures were placed in 24-well ultralow-attachment plates (Corning), and medium was changed every other day. For contraction quantification, assembloids were visualized using brightfield illumination in an EVOS FL Cell Imaging System (Life Technologies), and they were deemed to be contracting if they moved within a time-window of 30 seconds. Approval for mouse experiments was obtained from the Stanford University's Administrative Panel on Laboratory Animal Care (APLAC).

hCS-hSC-hSkM assembloid = assay: Glutamate uncaging in hCS-hSC-hSkM assembled spheroids (Example 1), hSkM contraction; conditions: tubocurarine 100 μM
Text: For cortico-spinal-muscle assembled spheroids, hCS-hSC assembled spheroids were placed on tissue culture inserts and positioned so that hSC was in contact with the 3D hSkM constructs. Media was changed every other day.
The FRAP module of the Leica SP8 confocal microscope was used to uncage glutamate using UV light.

hSkM = hSkM calcium imaging (Cal-590 AM) in 2D co-culture with hSpS; assay type: cell-based, human; conditions: curare 100 μM; 2D hSkM co-cultured with hSpS; 2-minute period
Method: hSkM calcium imaging. For calcium imaging co-culture experiments, hSkM were plated on 24-well plates as described above and differentiated with Skeletal Muscle Cell Differentiation Medium. After 6-7 days of exposure to differentiation medium, hSkM were co-cultured with hSpS or hCS. […] One hSpS or hCS were placed per well. hSkM-spheroid co-cultures were left undisturbed for two days, and half medium was carefully replaced every other day thereafter. Calcium imaging was performed after 6-7 days of co-culture. Cultures were incubated with Cal-590 AM (10 μM, AAT Bioquest) and PowerLoad (1:100, Invitrogen) for 30 minutes at 37° C., washed once for 10 minutes with full medium and then imaged. A Leica SP8 confocal microscope with a resonant scanner was used for imaging. Spontaneous calcium activity was recorded for 2 min (10 frames per second) in 6-9 fields per well, and for each field the distance from the spheroid was measured.
Calcium imaging. Calcium imaging data was processed using ImageJ (Fiji) and custom MATLAB routines. […] A total number of 798 (hSkM condition), 652 (hCS+hSkM condition), 1006 (hSpS+hSkM condition) and 727 (hSpS+hSkM+curare condition) hSkM fibers were analyzed. Following ROI registration, raw time-series movies were transformed to relative changes in fluorescence: dF/F(t)=(F(t)−F0)/F0, where F0 represented the 5th percentile value of the time series of each ROI. […]

Light induced responses (muscle displacement/contraction) upon hCS optogenetic stimulation [1]: completely abolished
Compound: N[C@@H](CCCP(=O)(O)O)C(=O)O [APV]

Compound: C[C@H](NC(=O)Cc1cc(F)cc(F)c1)C(=O)N[C@H](C(=O)OC(C)(C)C)c1ccccc1 [DAPT]
Cytoarchitecture of hSC (position of cell bodies and axons) (hSC [2]): cell bodies were found on the inside of the spheroid, while axons were found on the outside of hSC
Expression of some interneuron markers (GATA3, EN1, EVX1) (hSC [3]): lower expression
Expression of the MN markers ISL1 and HB9 (hSC [3]): higher expression
Increase in the proportion of motor neurons (hSpS [4]): approximately three-fold

Compound: COc1ccc([N+](=O)[O-])c2c1CCN2C(=O)CC[C@H](N)C(=O)O [MNI-caged glutamate, MNI-caged-L-glutamate]
Muscle contraction upon uncaging in hCS ([5]; 405 nm uncaging on hCS): robust muscle contraction
hSkM contraction upon stimulation of hSpS ([5]; 405 nm uncaging on hSpS): coupled with hSkM contraction
Response to glutamate uncaging of hCS (hCS-hSkM assembloid): did not elicit a response
hSkM contraction upon photostimulation of hSpS (hSpS-hSkM assembloids): resulted in hSkM contraction

Compound: CNC1CCC(N(Cc2cccc(-c3ccncc3)c2)C(=O)c2sc3ccccc3c2Cl)CC1 (centres unmarked) [SAG]
Expression of ventral progenitor marker genes OLIG2, NKX6-1, FOXA2 and post-mitotic markers CHX10 and ISL1 (hSpS [6]; high SAG exposure): higher expression

Compound: COc1cc2c3cc1Oc1cc(ccc1O)C[C@@H]1c4c(cc(OC)c(O)c4Oc4ccc(cc4)C[C@@H]3N(C)CC2)CC[N+]1(C)C [curare, (+)-tubocurarine chloride pentahydrate]
Muscle contraction upon glutamate uncaging in hCS ([5]; 100 μm curare): blocked; also recorded: stops
Contraction activity in hSpS-limb assembloids [7]: completely blocked
hSkM contraction after glutamate uncaging on hSC (hCS-hSC-hSkM assembloid): blocked
Increase in proportion of active hSkM (spontaneous calcium activity) in hSpS-hSkM (hSkM): blocked

Compound: FGF-2: growth factor FGF-2 (R&D Systems)
Rostro-caudal fate (HOXA2 expression pattern) (hSpS [6]; high levels of RA and low levels of FGF-2): more rostral fates
Rostro-caudal fate (HOXC9 expression) (hSpS [6]; low levels of RA and high levels of FGF-2): more caudal fates

Light induced responses (muscle displacement/contraction) upon hCS optogenetic stimulation [1]: completely abolished
Compound: NBQX

Source: patent publication US12110510B2, “Functional cortico-spinal-muscle assembled spheroids” (The Board of Trustees of the Leland Stanford Junior …, priority 2018, dated 2024)
